Results published in patent US20240158446A1, “CYCLIC COMPOUND HAVING SELECTIVE INHIBITORY ACTION ON KRAS OVER HRAS AND NRAS” (CHUGAI SEIYAKU KABUSHIKI KAISHA, priority 2021, published 2024).

Tests used:
[1] = target: GDP-bound HRAS wild-type protein (Homo sapiens, UniProt P01112); test: Binding to HRAS by surface plasmon resonance (SPR), Single Cycle Kinetics; conditions: SPR, GDP-bound HRAS wild-type protein vs GDP-bound KRAS wild-type protein
[2] = target: GDP-bound KRAS wild-type protein (Homo sapiens, UniProt P01116); test: Binding to KRAS by surface plasmon resonance (SPR), Single Cycle Kinetics; conditions: SPR Single Cycle Kinetics, GDP-bound KRAS wild-type protein, 1:1 binding model; read-out: KRAS KD
GDP-bound KRAS wild-type protein, sequence (P01116 whole entry): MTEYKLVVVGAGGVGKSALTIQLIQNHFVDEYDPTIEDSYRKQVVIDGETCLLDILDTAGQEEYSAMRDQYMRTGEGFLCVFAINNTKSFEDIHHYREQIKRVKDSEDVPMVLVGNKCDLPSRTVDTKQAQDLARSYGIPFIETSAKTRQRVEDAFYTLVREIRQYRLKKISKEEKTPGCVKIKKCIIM

[3] = target: GDP-bound NRAS wild-type protein (Homo sapiens, UniProt P01111); test: Binding to NRAS by surface plasmon resonance (SPR), Single Cycle Kinetics; conditions: SPR, GDP-bound NRAS wild-type protein vs GDP-bound KRAS wild-type protein
GDP-bound NRAS wild-type protein, sequence (P01111 whole entry): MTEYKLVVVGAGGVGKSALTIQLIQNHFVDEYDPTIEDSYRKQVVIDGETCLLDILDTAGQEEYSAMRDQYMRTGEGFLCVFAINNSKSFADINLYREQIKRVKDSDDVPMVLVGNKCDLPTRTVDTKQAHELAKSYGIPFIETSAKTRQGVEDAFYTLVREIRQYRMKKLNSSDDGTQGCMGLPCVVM

GDP-bound HRAS wild-type protein, sequence (P01112 whole entry): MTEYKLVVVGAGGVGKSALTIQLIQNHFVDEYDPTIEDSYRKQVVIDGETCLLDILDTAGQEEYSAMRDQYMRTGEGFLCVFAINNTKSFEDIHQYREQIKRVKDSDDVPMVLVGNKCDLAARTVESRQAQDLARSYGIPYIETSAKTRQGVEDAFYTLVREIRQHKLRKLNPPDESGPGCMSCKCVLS

| Compound | HRAS/KRAS (ratio of KD value with respect to HRAS to KD value with respect to KRAS) [1] | Kd [2] [nM] | NRAS/KRAS (ratio of KD value with respect to NRAS to KD value with respect to KRAS) [3] |
| --- | --- | --- | --- |
| CC[C@H](C)[C@@H]1NC(=O)[C@H](CC(C)C)N(C)C(=O)C[C@@H](C(=O)N2CCOCC2)N(C)C(=O)[C@H](C2CCCC2)N(C)C(=O)C2(CC(F)(F)C2)NC(=O)[C@@H]2CCCN2C(=O)[C@H](CCc2cc(F)c(C(F)(F)F)c(F)c2)NC(=O)CN(C)C(=O)[C@H](Cc2ccc(C(F)(F)F)cc2)N2CCCC[C@@H](C2=O)N(C)C(=O)CN(C)C1=O [PP0562] | B (a compound having 3 or more and less than 10 is denoted as B) | 0.04 | B (a compound having 3 or more and less than 10 is denoted as B) |
| CC[C@H](C)[C@@H]1NC(=O)[C@H](CC(C)C)N(C)C(=O)C[C@@H](C(=O)N2CCOCC2)N(C)C(=O)[C@H](C2CCCC2)N(C)C(=O)C2(COC2)NC(=O)[C@@H]2CCCN2C(=O)[C@H](CCc2cc(F)c(C(F)(F)F)c(F)c2)NC(=O)CN(C)C(=O)[C@H](Cc2ccc(C(F)(F)F)cc2)N2CCCC[C@@H](C2=O)N(C)C(=O)CN(C)C1=O [PP0563] | B (a compound having 3 or more and less than 10 is denoted as B) | 0.1 | B (a compound having 3 or more and less than 10 is denoted as B) |
| CC[C@H](C)[C@@H]1NC(=O)[C@H](CC(C)C)N(C)C(=O)C[C@@H](C(=O)N2CCOCC2)N(C)C(=O)[C@H](C2CCCC2)N(C)C(=O)C2(CCOCC2)NC(=O)[C@@H]2CCCN2C(=O)[C@H](CCc2cc(F)c(C(F)(F)F)c(F)c2)NC(=O)CN(C)C(=O)[C@H](Cc2ccc(C(F)(F)F)cc2)N2CCCC[C@@H](C2=O)N(C)C(=O)CN(C)C1=O [PP0564] | B (a compound having 3 or more and less than 10 is denoted as B) | 0.18 | B (a compound having 3 or more and less than 10 is denoted as B) |
| CC[C@H](C)[C@@H]1NC(=O)[C@H](CC(C)C)N(C)C(=O)C[C@@H](C(=O)N2CCOCC2)N(C)C(=O)[C@H](C2CCCC2)N(C)C(=O)C(C)(C)NC(=O)[C@@H]2CCCN2C(=O)[C@H](CCc2cc(F)c(C(F)(F)F)c(F)c2)NC(=O)CN(C)C(=O)[C@H](Cc2ccc(C(F)(F)F)cc2)N2CCCC[C@@H](C2=O)N(C)C(=O)CN(C)C1=O [PP0565] | B (a compound having 3 or more and less than 10 is denoted as B) | 0.16 | C (A compound having a KD ratio of 0.1 or more and less than 3 is denoted as C) |
| CC[C@H](C)[C@@H]1NC(=O)[C@H](CC(C)C)N(C)C(=O)C[C@@H](C(=O)N2CCOCC2)N(C)C(=O)[C@H](C2CCC2)N(C)C(=O)C2(CCCC2)NC(=O)[C@@H]2CCCN2C(=O)[C@H](CCc2cc(F)c(C(F)(F)F)c(F)c2)NC(=O)CN(C)C(=O)[C@H](Cc2ccc(C(F)(F)F)cc2)N2CCCC[C@@H](C2=O)N(C)C(=O)CN(C)C1=O [PP0566] | B (a compound having 3 or more and less than 10 is denoted as B) | 0.29 | B (a compound having 3 or more and less than 10 is denoted as B) |
| CC[C@H](C)[C@@H]1NC(=O)[C@H](CC(C)C)N(C)C(=O)C[C@@H](C(=O)N2CCOCC2)N(C)C(=O)[C@H](C2CCCCC2)N(C)C(=O)C2(CCCC2)NC(=O)[C@@H]2CCCN2C(=O)[C@H](CCc2cc(F)c(C(F)(F)F)c(F)c2)NC(=O)CN(C)C(=O)[C@H](Cc2ccc(C(F)(F)F)cc2)N2CCCC[C@@H](C2=O)N(C)C(=O)CN(C)C1=O [PP0567] | B (a compound having 3 or more and less than 10 is denoted as B) | 0.21 | B (a compound having 3 or more and less than 10 is denoted as B) |
| CC[C@H](C)[C@@H]1NC(=O)[C@H](CC(C)C)N(C)C(=O)C[C@@H](C(=O)N2CCOCC2)N(C)C(=O)[C@H](CC(F)(F)F)N(C)C(=O)C2(CCCC2)NC(=O)[C@@H]2CCCN2C(=O)[C@H](CCc2cc(F)c(C(F)(F)F)c(F)c2)NC(=O)CN(C)C(=O)[C@H](Cc2ccc(C(F)(F)F)cc2)N2CCCC[C@@H](C2=O)N(C)C(=O)CN(C)C1=O [PP0568] | B (a compound having 3 or more and less than 10 is denoted as B) | 1.1 | B (a compound having 3 or more and less than 10 is denoted as B) |
| CC[C@H](C)[C@@H]1NC(=O)[C@H](CC(C)C)N(C)C(=O)C[C@@H](C(=O)N(C)C)N(C)C(=O)[C@H](C2CCCC2)N(C)C(=O)C2(CCCC2)NC(=O)[C@@H]2CCCN2C(=O)[C@H](CCc2cc(F)c(C(F)(F)F)c(F)c2)NC(=O)CN(C)C(=O)[C@H](Cc2ccc(C(F)(F)F)cc2)N2CCCC[C@@H](C2=O)N(C)C(=O)CN(C)C1=O [PP0569] | B (a compound having 3 or more and less than 10 is denoted as B) | 0.034 | C (A compound having a KD ratio of 0.1 or more and less than 3 is denoted as C) |
| CC[C@H](C)[C@@H]1NC(=O)[C@H](CC(C)C)N(C)C(=O)C[C@@H](C(=O)N2CCC2)N(C)C(=O)[C@H](C2CCCC2)N(C)C(=O)C2(CCCC2)NC(=O)[C@@H]2CCCN2C(=O)[C@H](CCc2cc(F)c(C(F)(F)F)c(F)c2)NC(=O)CN(C)C(=O)[C@H](Cc2ccc(C(F)(F)F)cc2)N2CCCC[C@@H](C2=O)N(C)C(=O)CN(C)C1=O [PP0570] | B (a compound having 3 or more and less than 10 is denoted as B) | 0.046 | B (a compound having 3 or more and less than 10 is denoted as B) |
| CC[C@H](C)[C@@H]1NC(=O)[C@H](CC(C)C)N(C)C(=O)C[C@@H](C(=O)N2CCCC2)N(C)C(=O)[C@H](C2CCCC2)N(C)C(=O)C2(CCCC2)NC(=O)[C@@H]2CCCN2C(=O)[C@H](CCc2cc(F)c(C(F)(F)F)c(F)c2)NC(=O)CN(C)C(=O)[C@H](Cc2ccc(C(F)(F)F)cc2)N2CCCC[C@@H](C2=O)N(C)C(=O)CN(C)C1=O [PP0571] | B (a compound having 3 or more and less than 10 is denoted as B) | 0.05 | B (a compound having 3 or more and less than 10 is denoted as B) |
| CC[C@H](C)[C@@H]1NC(=O)[C@H](CC(C)C)N(C)C(=O)C[C@@H](C(=O)N2CCCCC2)N(C)C(=O)[C@H](C2CCCC2)N(C)C(=O)C2(CCCC2)NC(=O)[C@@H]2CCCN2C(=O)[C@H](CCc2cc(F)c(C(F)(F)F)c(F)c2)NC(=O)CN(C)C(=O)[C@H](Cc2ccc(C(F)(F)F)cc2)N2CCCC[C@@H](C2=O)N(C)C(=O)CN(C)C1=O [PP0572] | B (a compound having 3 or more and less than 10 is denoted as B) | 0.14 | B (a compound having 3 or more and less than 10 is denoted as B) |
| CC[C@H](C)[C@@H]1NC(=O)[C@H](CC(C)C)N(C)C(=O)C[C@@H](C(=O)N(C)C)N(C)C(=O)[C@H](C2CCCC2)N(C)C(=O)C2(CCC2)NC(=O)[C@@H]2CCCN2C(=O)[C@H](CCc2cc(F)c(C(F)(F)F)c(F)c2)NC(=O)CN(C)C(=O)[C@H](Cc2ccc(C(F)(F)F)cc2)N2CCCC[C@@H](C2=O)N(C)C(=O)CN(C)C1=O [PP0574] | B (a compound having 3 or more and less than 10 is denoted as B) | 0.026 | C (A compound having a KD ratio of 0.1 or more and less than 3 is denoted as C) |
| CC[C@H](C)[C@@H]1NC(=O)[C@H](CC(C)C)N(C)C(=O)C[C@@H](C(=O)N2CCOCC2)N(C)C(=O)[C@H](C2CCCC2)N(C)C(=O)C2(CCC2)NC(=O)[C@@H]2CC(F)(F)CN2C(=O)[C@H](CCc2cc(F)c(C(F)(F)F)c(F)c2)NC(=O)CN(C)C(=O)[C@H](Cc2ccc(C(F)(F)F)cc2)N2CCCC[C@@H](C2=O)N(C)C(=O)CN(C)C1=O [PP0575] | B (a compound having 3 or more and less than 10 is denoted as B) | 0.023 | B (a compound having 3 or more and less than 10 is denoted as B) |
| CC[C@H](C)[C@@H]1NC(=O)[C@H](CC(C)C)N(C)C(=O)C[C@@H](C(=O)N(C)C)N(C)C(=O)[C@H](C2CCCC2)N(C)C(=O)C2(CCCC2)NC(=O)[C@@H]2CC(F)(F)CN2C(=O)[C@H](CCc2cc(F)c(C(F)(F)F)c(F)c2)NC(=O)CN(C)C(=O)[C@H](Cc2ccc(C(F)(F)F)cc2)N2CCCC[C@@H](C2=O)N(C)C(=O)CN(C)C1=O [PP0576] | B (a compound having 3 or more and less than 10 is denoted as B) | 0.019 | C (A compound having a KD ratio of 0.1 or more and less than 3 is denoted as C) |
| CC[C@H](C)[C@@H]1NC(=O)[C@H](CC(C)C)N(C)C(=O)C[C@@H](C(=O)N(C)C)N(C)C(=O)[C@H](C2CCCC2)N(C)C(=O)C2(CCC2)NC(=O)[C@@H]2CC(F)(F)CN2C(=O)[C@H](CCc2cc(F)c(C(F)(F)F)c(F)c2)NC(=O)CN(C)C(=O)[C@H](Cc2ccc(C(F)(F)F)cc2)N2CCCC[C@@H](C2=O)N(C)C(=O)CN(C)C1=O [PP0577] | C (A compound having a KD ratio of 0.1 or more and less than 3 is denoted as C) | 0.019 | C (A compound having a KD ratio of 0.1 or more and less than 3 is denoted as C) |
